# Laboratory results from US8779142B2, “Azabicyclo compound and salt thereof” (Taiho Pharmaceutical Co., Ltd., priority 2009, dated 2014).
# Tests used:
# [1] = biological target: human HSP90 alpha protein (HSP90 N-terminal protein, amino acids 2-236) (Homo sapiens (Human), UniProt P07900); assay: Measurement of HSP90-binding activity (AlphaScreen competitive assay, biotin-labeled geldanamycin); settings: concentration inhibiting binding of biotin-labeled geldanamycin (40 nM) to purified HSP90 to 50% of control; read-out: HSP-binding activity IC50
# [2] = test system: SK-BR-3 cells; assay: Measurement of cell growth inhibition (crystal violet staining method); assay type: cell-based; settings: Homo sapiens; breast cancer SK-BR-3 cells, 72 hr culture with test substance
IC50 [1] [nM],IC50 [2] [nM],Compound
120,220,"COc1cc(C(N)=O)ccc1-n1nc(C(C)C)c2c(-n3cnc(-c4cccnc4)c3)ccnc21 [Example 142, 4-{3-Isopropyl-4-(4-(pyridin-3-yl)-1H-imidazol-1-yl)-1H-pyrazolo[3,4-b]pyridin-1-yl}-3-methoxybenzamide]"
170,30,"CC(C)Nc1cc(-n2nc(C(C)C)c3c(-n4cnc(-c5cn[nH]c5)c4)ccnc32)ccc1C(N)=O [Example 143, 4-{4-(4-(1H-Pyrazol-4-yl)-1H-imidazol-1-yl)-3-isopropyl-1H-pyrazolo[3,4-b]pyridin-1-yl}-2-(isopropylamino)benzamide]"
420,110,"CCNc1cc(-n2nc(C(C)C)c3c(-n4cnc(-c5cn[nH]c5)c4)ccnc32)ccc1C(N)=O [Example 144, 4-{4-(4-(1H-Pyrazol-4-yl)-1H-imidazol-1-yl)-3-isopropyl-1H-pyrazolo[3,4-b]pyridin-1-yl}-2-(ethylamino)benzamide]"
630,1500,"CCn1cc(-c2cn(-c3ccnc4c3c(C(C)C)nn4-c3ccc(C(N)=O)cc3Cl)cn2)cn1 [Example 145, 3-Chloro-4-{4-(4-(1-ethyl-1H-pyrazol-4-yl)-1H-imidazol-1-yl)-3-isopropyl-1H-pyrazolo[3,4-b]pyridin-1-yl}benzamide]"
770,210,"CCNc1cc(-n2nc(C(C)C)c3c(-n4cnc(-c5cnn(CC)c5)c4)ccnc32)ccc1C(N)=O [Example 146, 4-{4-(4-(1-Ethyl-1H-pyrazol-4-yl)-1H-imidazol-1-yl)-3-isopropyl-1H-pyrazolo[3,4-b]pyridin-1-yl}-2-(ethylamino)benzamide]"
810,360,"CCNc1cc(-n2nc(C(C)C)c3c(-n4cnc(-c5cnn(C(F)F)c5)c4)ccnc32)ccc1C(N)=O [Example 147, 4-{4-(4-(1-(Difluoromethyl)-1H-pyrazol-4-yl)-1H-imidazol-1-yl)-3-isopropyl-1H-pyrazolo[3,4-b]pyridin-1-yl}-2-(ethylamino)benzamide]"
390,690,"Cc1cc(C(N)=O)ccc1-n1nc(C(C)C)c2c(-n3cnc(-c4ccncc4)c3)ccnc21 [Example 149, 4-{3-Isopropyl-4-(4-(pyridin-4-yl)-1H-imidazol-1-yl)-1H-pyrazolo[3,4-b]pyridin-1-yl}-3-methylbenzamide]"
930,1330,"CC(C)NC(=O)c1ccc(-c2cn(-c3ccnc4c3c(C(C)C)nn4-c3ccc(C(N)=O)cc3Cl)cn2)cc1 [Example 150, 4-{1-(1-(4-Carbamoyl-2-chlorophenyl)-3-isopropyl-1H-pyrazolo[3,4-b]pyridin-4-yl)-1H-imidazol-4-yl}-N-isopropylbenzamide]"
660,1540,"CC(C)c1nn(-c2ccc(C(N)=O)cc2Cl)c2nccc(-n3cnc(-c4ccc(C(=O)N(C)C)cc4)c3)c12 [Example 151, 4-{1-(1-(4-Carbamoyl-2-chlorophenyl)-3-isopropyl-1H-pyrazolo[3,4-b]pyridin-4-yl)-1H-imidazol-4-yl}-N,N-dimethylbenzamide]"
1010,1280,"CC(C)c1nn(-c2ccc(C(N)=O)cc2Cl)c2nccc(-n3cnc(-c4ccc(C(N)=O)cc4)c3)c12 [Example 152, 4-{4-(4-(4-Carbamoylphenyl)-1H-imidazol-1-yl)-3-isopropyl-1H-pyrazolo[3,4-b]pyridin-1-yl}-3-chlorobenzamide]"
130,240,"Cn1cc(-c2cn(-c3ccnc4c3c(C(F)(F)F)nn4-c3ccc(C(N)=O)cc3Cl)cn2)cn1 [Example 153, 3-Chloro-4-{4-(4-(1-methyl-1H-pyrazol-4-yl)-1H-imidazol-1-yl)-3-(trifluoromethyl)-1H-pyrazolo[3,4-b]pyridin-1-yl}benzamide]"
140,120,"Cc1cc(C(N)=O)ccc1-n1nc(C(F)(F)F)c2c(-n3cnc(-c4cnn(C)c4)c3)ccnc21 [Example 154, 3-Methyl-4-{4-(4-(1-methyl-1H-pyrazol-4-yl)-1H-imidazol-1-yl)-3-(trifluoromethyl)-1H-pyrazolo[3,4-b]pyridin-1-yl}benzamide]"
110,40,"CCc1cc(C(N)=O)ccc1-n1nc(C(F)(F)F)c2c(-n3cnc(-c4cnn(C)c4)c3)ccnc21 [Example 155, 3-Ethyl-4-{4-(4-(1-methyl-1H-pyrazol-4-yl)-1H-imidazol-1-yl)-3-(trifluoromethyl)-1H-pyrazolo[3,4-b]pyridin-1-yl}benzamide]"
70,40,"CCCc1cc(C(N)=O)ccc1-n1nc(C(F)(F)F)c2c(-n3cnc(-c4cnn(C)c4)c3)ccnc21 [Example 156, 4-{4-(4-(1-Methyl-1H-pyrazol-4-yl)-1H-imidazol-1-yl)-3-(trifluoromethyl)-1H-pyrazolo[3,4-b]pyridin-1-yl}-3-propylbenzamide]"
130,190,"Cn1cc(-c2cn(-c3ccnc4c3c(C(F)(F)F)nn4-c3ccc(C(N)=O)c(N)c3)cn2)cn1 [Example 157, 2-Amino-4-{4-(4-(1-methyl-1H-pyrazol-4-yl)-1H-imidazol-1-yl)-3-(trifluoromethyl)-1H-pyrazolo[3,4-b]pyridin-1-yl}benzamide]"
100,200,"Cn1cc(-c2cn(-c3ccnc4c3c(C(F)(F)F)nn4-c3ccc(C(N)=O)cc3N)cn2)cn1 [Example 158, 3-Amino-4-{4-(4-(1-methyl-1H-pyrazol-4-yl)-1H-imidazol-1-yl)-3-(trifluoromethyl)-1H-pyrazolo[3,4-b]pyridin-1-yl}benzamide]"
210,290,"CN(C)c1cc(C(N)=O)ccc1-n1nc(C(F)(F)F)c2c(-n3cnc(-c4cnn(C)c4)c3)ccnc21 [Example 159, 3-(Dimethylamino)-4-{4-(4-(1-methyl-1H-pyrazol-4-yl)-1H-imidazol-1-yl)-3-(trifluoromethyl)-1H-pyrazolo[3,4-b]pyridin-1-yl}benzamide]"
160,20,"CC(C)Nc1cc(-n2nc(C(F)(F)F)c3c(-n4cnc(-c5cnn(C)c5)c4)ccnc32)ccc1C(N)=O [Example 160, 2-(Isopropylamino)-4-{4-(4-(1-methyl-1H-pyrazol-4-yl)-1H-imidazol-1-yl)-3-(trifluoromethyl)-1H-pyrazolo[3,4-b]pyridin-1-yl}benzamide]"
170,60,"CCNc1cc(-n2nc(C(F)(F)F)c3c(-n4cnc(-c5cnn(C)c5)c4)ccnc32)ccc1C(N)=O [Example 161, 2-(Ethylamino)-4-{4-(4-(1-methyl-1H-pyrazol-4-yl)-1H-imidazol-1-yl)-3-(trifluoromethyl)-1H-pyrazolo[3,4-b]pyridin-1-yl}benzamide]"
110,90,"CCNc1cc(C(N)=O)ccc1-n1nc(C(F)(F)F)c2c(-n3cnc(-c4cnn(C)c4)c3)ccnc21 [Example 162, 3-(Ethylamino)-4-{4-(4-(1-methyl-1H-pyrazol-4-yl)-1H-imidazol-1-yl)-3-(trifluoromethyl)-1H-pyrazolo[3,4-b]pyridin-1-yl}benzamide]"
100,60,"CCCNc1cc(C(N)=O)ccc1-n1nc(C(F)(F)F)c2c(-n3cnc(-c4cnn(C)c4)c3)ccnc21 [Example 163, 4-{4-(4-(1-Methyl-1H-pyrazol-4-yl)-1H-imidazol-1-yl)-3-(trifluoromethyl)-1H-pyrazolo[3,4-b]pyridin-1-yl}-3-(propylamino)benzamide]"
110,70,"CC(C)Nc1cc(C(N)=O)ccc1-n1nc(C(F)(F)F)c2c(-n3cnc(-c4cnn(C)c4)c3)ccnc21 [Example 164, 3-(Isopropylamino)-4-{4-(4-(1-methyl-1H-pyrazol-4-yl)-1H-imidazol-1-yl)-3-(trifluoromethyl)-1H-pyrazolo[3,4-b]pyridin-1-yl}benzamide]"
120,70,"Cn1cc(-c2cn(-c3ccnc4c3c(C(F)(F)F)nn4-c3ccc(C(N)=O)cc3NC3CCC3)cn2)cn1 [Example 165, 3-(Cyclobutylamino)-4-{4-(4-(1-methyl-1H-pyrazol-4-yl)-1H-imidazol-1-yl)-3-(trifluoromethyl)-1H-pyrazolo[3,4-b]pyridin-1-yl}benzamide]"
140,110,"Cn1cc(-c2cn(-c3ccnc4c3c(C(F)(F)F)nn4-c3ccc(C(N)=O)cc3NC3CCCC3)cn2)cn1 [Example 166, 3-(Cyclopentylamino)-4-{4-(4-(1-methyl-1H-pyrazol-4-yl)-1H-imidazol-1-yl)-3-(trifluoromethyl)-1H-pyrazolo[3,4-b]pyridin-1-yl}benzamide]"
100,80,"Cn1cc(-c2cn(-c3ccnc4c3c(C(F)(F)F)nn4-c3ccc(C(N)=O)cc3NCC(F)F)cn2)cn1 [Example 167, 3-(2,2-Difluoroethylamino)-4-{4-(4-(1-methyl-1H-pyrazol-4-yl)-1H-imidazol-1-yl)-3-(trifluoromethyl)-1H-pyrazolo[3,4-b]pyridin-1-yl}benzamide]"
70,60,"COCCNc1cc(C(N)=O)ccc1-n1nc(C(F)(F)F)c2c(-n3cnc(-c4cnn(C)c4)c3)ccnc21 [Example 168, 3-(2-Methoxyethylamino)-4-{4-(4-(1-methyl-1H-pyrazol-4-yl)-1H-imidazol-1-yl)-3-(trifluoromethyl)-1H-pyrazolo[3,4-b]pyridin-1-yl}benzamide]"
230,270,"Cn1cc(-c2cn(-c3ccnc4c3c(C(F)(F)F)nn4-c3ccc(C(N)=O)cc3C#N)cn2)cn1 [Example 169, 3-Cyano-4-{4-(4-(1-methyl-1H-pyrazol-4-yl)-1H-imidazol-1-yl)-3-(trifluoromethyl)-1H-pyrazolo[3,4-b]pyridin-1-yl}benzamide]"
210,370,"Cn1cc(-c2cn(-c3ccnc4c3c(C(F)(F)F)nn4-c3ccc(C(N)=O)cc3Br)cn2)cn1 [Example 170, 3-Bromo-4-{4-(4-(1-methyl-1H-pyrazol-4-yl)-1H-imidazol-1-yl)-3-(trifluoromethyl)-1H-pyrazolo[3,4-b]pyridin-1-yl}benzamide]"
